Assay results as given in paper PMC6742494 (ACS infectious diseases, 2016).
In brackets after ≈: the same amount, converted by molar mass. Several values for one entry are separate records, joined by “and”; a condition that tells them apart may be missing. Equal entries are not always repeated.

Assays:
[1] = tested on: Mtb H37Rv resistant isolates with mmpL3 mutations; assay type: cell-based, Mycobacterium tuberculosis
[2] = tested on: Mtb Haarlem 9 (RIF-resistant); assay: microbe, parasite or virus in culture; assay type: cell-based; details: Mycobacterium tuberculosis
Mtb T 27 (INH-resistant) = assay: microbe, parasite or virus in culture; assay type: cell-based; details: Mycobacterium tuberculosis
[3] = tested on: Mtb Beijing 22 (RIF-resistant); assay: microbe, parasite or virus in culture; assay type: cell-based; details: Mycobacterium tuberculosis

Compound | susceptibility of DA5^R and TBL-140^R strains [1] | MIC [2] | MIC (Mtb T 27 (INH-resistant)) | MIC [3] | MIC [1]
NNC(=O)c1ccncc1 [INH, isoniazid] | identical susceptibility as wild-type H37Rv | 0.025 µg/mL (≈ 0.182 µM) | > 0.8 µg/mL | 0.025 µg/mL (≈ 0.182 µM) | 
CC(C)=CCC/C(C)=C/CNCCNC1C2CC3CC(C2)CC1C3 (centres unmarked) [SQ109] |  |  |  |  | 6.25 µg/mL and 12.5 µg/mL
CO[C@H]1/C=C/O[C@@]2(C)Oc3c(C)c(O)c4c(O)c(c(/C=N/N5CCN(C)CC5)c(O)c4c3C2=O)NC(=O)/C(C)=C\C=C\[C@H](C)[C@H](O)[C@@H](C)[C@@H](O)[C@@H](C)[C@H](OC(C)=O)[C@@H]1C [RIF, rifampicin] | identical susceptibility as wild-type H37Rv |  | 0.0125 µg/mL (≈ 0.0152 µM) |  | 
FC(F)(F)Oc1ccc(Oc2ccc(CNCCNC3C4CC5CC(C4)CC3C5)cc2)cc1 (centres unmarked) [Compound 8, N^1-adamantan-2-yl-N^2-(4-(4-(trifluoro-methoxy)phenoxy)benzyl)ethane-1,2-diamine] |  | 1.2 µg/mL (≈ 2.61 µM) | 0.58 µg/mL (≈ 1.26 µM) | 1.2 µg/mL (≈ 2.61 µM) | 
CC[C@@H](CO)NCCN[C@@H](CC)CO [EMB, ethambutol] | identical susceptibility as wild-type H37Rv | 1 µg/mL (≈ 4.89 µM) | 1 µg/mL (≈ 4.89 µM) | 1 µg/mL (≈ 4.89 µM) | 
